Reference: patent publication US20220257580A1, “TREATMENT OF C3 GLOMERULOPATHY USING A C5A INHIBITOR” (CHEMOCENTRYX, INC., priority 2020, published 2022)
Entries after “also recorded” stand apart in the source; their conditions may differ.

Assays:
Format in all cases: in vivo, human
[1] = system: patients with C3 glomerulopathy; assay: Phase 2 placebo-controlled study (ACCOLADE): eGFR, urinary PCR, urinary MCP-1:creatinine ratio
Source text: The secondary objectives of this study include assessment of: • 1. The safety of compound 1 compared to placebo based on the incidence of adverse events, changes in clinical laboratory measurements, and vital signs; • 2. Changes in laboratory parameters of renal disease including estimated glomerular filtration rate (eGFR), proteinuria, and urinary excretion of monocyte chemoattractant protein-1 (MCP-1) with compound 1 compared to placebo; • 3. Health-related quality-of-life changes based on Short Form-36 version 2 (SF-36 v2) and EuroQOL-5D-5L (EQ-5D-5L) with compound 1 compared to placebo; • 4. Evaluation of the pharmacokinetic profile of compound 1 in patients with C3 glomerulopathy. Patients will then be randomized, 1:1, to receive 30 mg compound 1 twice daily or matching placebo for 26 weeks in a double-blind, placebo-controlled manner. The 26-week double-blind period will be followed by a 26-week period during which all patients will receive compound 1 treatment. Efficacy assessments include: • 1. Renal histology to determine the C3G Histologic Index (CHI) for disease activity and chronicity; • 2. eGFR calculated by the Modification of Diet in Renal Disease (MDRD) equation from serum creatinine; • 3. First morning urinary PCR; • 4. First morning urinary MCP-1:creatinine ratio; • 5. EQ-5D-5L and SF-36 v2. Other efficacy endpoints include: • 1. The percent change from baseline in the CHI for disease chronicity over the placebo-controlled 26-week treatment period; • 2. The change and percent change from baseline in eGFR over the placebo-controlled 26-week treatment period; • 3. The percent change from baseline in urinary PCR over the placebo-controlled 26-week treatment period; • 4. The percent change from baseline in urinary MCP-1:creatinine ratio over the placebo-controlled 26-week treatment period; • 5. Change from baseline in EQ-5D-5L and SF-36 v2 (domains and component scores) over the placebo-controlled 26-week treatment period. Continuous variables, including eGFR, urinary PCR, urinary MCP-1:creatinine ratio, EQ-5D-5L, and SF-36 v2 will be analyzed using a mixed effects model for repeated measures ([…]) with treatment group, visit, treatment-by-visit interaction, and randomization strata (C3GN or DDD, and renal transplant or not) as factors, and baseline as covariate. Patients will be considered as repeated measure units over visits. Point estimates and corresponding 95% confidence intervals will be estimated for the difference between the compound 1 group and the control group across 26 weeks using simple contrast from the model. Similar to the primary endpoint, the second 26 weeks will be compared to the first 26 weeks for the placebo group.

[2] = system: patients with C3 glomerulopathy; assay: Phase 2 placebo-controlled study (ACCOLADE): C3G Histologic Index from kidney biopsies
Procedure: The primary objective is to evaluate the efficacy of compound 1 compared to placebo based on histologic changes in C3G pathology from kidney biopsies taken before and during treatment. Patients will then be randomized, 1:1, to receive 30 mg compound 1 twice daily or matching placebo for 26 weeks in a double-blind, placebo-controlled manner. The 26-week double-blind period will be followed by a 26-week period during which all patients will receive compound 1 treatment. Efficacy assessments include: • 1. Renal histology to determine the C3G Histologic Index (CHI) for disease activity and chronicity; • 2. eGFR calculated by the Modification of Diet in Renal Disease (MDRD) equation from serum creatinine; • 3. First morning urinary PCR; • 4. First morning urinary MCP-1:creatinine ratio; • 5. EQ-5D-5L and SF-36 v2. All renal biopsies will also be analyzed based on hematoxylin-eosin (H&E) staining, periodic acid-Schiff (PAS) staining, trichrome, and Jones methenamine silver staining. These renal biopsies will be evaluated by a central reader, blinded to treatment assignment from either slides or high-resolution electronic images. The central reader will determine the degree of disease activity and chronicity. The primary efficacy endpoint is the percent change from baseline to week 26 in the C3G Histologic Index (CHI) for disease activity. The compound 1 and placebo groups will be compared by ANCOVA with treatment group and randomization strata (C3GN or DDD, and renal transplant or not) as factors, and baseline as covariate. Point estimates and corresponding 95% confidence intervals will be estimated for the difference between the compound 1 and placebo control group. Other efficacy endpoints include: • 1. The percent change from baseline in the CHI for disease chronicity over the placebo-controlled 26-week treatment period; • 2. The change and percent change from baseline in eGFR over the placebo-controlled 26-week treatment period; • 3. The percent change from baseline in urinary PCR over the placebo-controlled 26-week treatment period; • 4. The percent change from baseline in urinary MCP-1:creatinine ratio over the placebo-controlled 26-week treatment period; • 5. Change from baseline in EQ-5D-5L and SF-36 v2 (domains and component scores) over the placebo-controlled 26-week treatment period. The primary endpoint of the study was change from baseline to week 26 in the C3G Histologic Index for Disease Activity, comparing the changes in kidney histology from biopsy sections taken from patients characterized by elevated levels of C5b-9 complement markers in the blood at time of study entry (baseline).

[3] = system: patients with C3 glomerulopathy; assay: Phase 2 placebo-controlled study (ACCOLADE): safety and tolerability; settings: patients with C3G
Source text: The secondary objectives of this study include assessment of: • 1. The safety of compound 1 compared to placebo based on the incidence of adverse events, changes in clinical laboratory measurements, and vital signs; • 2. Changes in laboratory parameters of renal disease including estimated glomerular filtration rate (eGFR), proteinuria, and urinary excretion of monocyte chemoattractant protein-1 (MCP-1) with compound 1 compared to placebo; • 3. Health-related quality-of-life changes based on Short Form-36 version 2 (SF-36 v2) and EuroQOL-5D-5L (EQ-5D-5L) with compound 1 compared to placebo; • 4. Evaluation of the pharmacokinetic profile of compound 1 in patients with C3 glomerulopathy.
Safety assessments include adverse events, physical examination abnormalities, vital signs, and clinical laboratory tests (including blood chemistry, hematology, and urinalysis).
Safety endpoints include: • 1. Patient incidence of treatment-emergent serious adverse events, adverse events, and withdrawals due to adverse events; • 2. Change from baseline and shifts from baseline in all safety laboratory parameters; • 3. Change from baseline in vital signs.

[4] = system: patient with progressive complement 3 (C3) glomerulonephritis (recurrent C3GN in a renal transplant); assay: Special Needs program study of compound 1 in one patient: renal allograft biopsy histology; settings: for Endocapillary hypercellularity/total: pre-treatment 3/11; for CD68-positive cells/glomerulus: pre-treatment 11; for Immunoflourescence microscopy, IgM: pre-treatment trace
Source text: Under the Special Needs program in the United Kingdom (which is similar to a compassionate use protocol in the US), a C3 glomerulonephritis patient received treatment with the orally administered complement inhibitor compound 1, following the protocol detailed below. The patient had refractory disease despite a kidney transplant and prior treatment with the broadly immunosuppressive drugs rituximab, cyclophosphamide, mycophenolate mofetil, tacrolimus, and steroids. Renal allograft biopsies were taken pre-dose, 2 and 7 months during therapy. At the Day 1 and post-Day 1 study visits, blood and urine samples will be collected for safety, efficacy, and pharmacokinetic measurements. Physical examinations and vital signs assessments will be performed throughout the study. Concomitant medication and adverse event assessments will be made at every study visit. If at all possible, a renal biopsy will be performed after an appropriate follow-up period to assess the changes in kidney histology. Efficacy assessments include: • 1. First morning urinary PCR or ACR; • 2. eGFR by Modification of Diet in Renal Disease (MDRD) formula based on serum creatinine; • 3. Plasma and urine pharmacodynamic markers, e.g., MCP-1, C3a, C5a, properdin, and sC5b-9; • 4. Glomerular inflammation (e.g., crescents, inflammatory cell infiltrate, endocapillary proliferation) and C3 deposition in a follow-up renal biopsy sample; Renal biopsies will be analyzed by periodic acid-Schiff (PAS) staining, immunofluorescence staining for C3, C5b-9, and potentially other markers. Electron microscopy may also be performed.

[5] = system: patient with progressive complement 3 (C3) glomerulonephritis (recurrent C3GN in a renal transplant); assay: Special Needs program study of compound 1 in one patient: eGFR and proteinuria; settings: for eGFR decline / eGFR: eGFR 83 mL/min/1.73 m^2 14 months prior, 46 at start of treatment
Source text: Under the Special Needs program in the United Kingdom (which is similar to a compassionate use protocol in the US), a C3 glomerulonephritis patient received treatment with the orally administered complement inhibitor compound 1, following the protocol detailed below. The patient had refractory disease despite a kidney transplant and prior treatment with the broadly immunosuppressive drugs rituximab, cyclophosphamide, mycophenolate mofetil, tacrolimus, and steroids. Renal allograft biopsies were taken pre-dose, 2 and 7 months during therapy. The primary efficacy objective is to evaluate the efficacy of compound 1 based on change from baseline in eGFR (MDRD, Estimated Glomerular Filtration Rate) and proteinuria. This is a clinical study to test the safety, tolerability, and efficacy of compound 1 in a patient with recurrent […] in a renal transplant. The patient will have biopsy proven recurrent […] prior to start of dosing, and be deemed eligible based on the inclusion and exclusion criteria. Screening procedures will include recording of demographics, medical history, medication history, physical examination and vital signs, serum chemistry, hematology, urinalysis (including UPCR measurement), viral screening (if not performed within prior 12 weeks), and estimated glomerular filtration rate (eGFR) assessment based on serum creatinine. The baseline eGFR needs to be at least 25 mL/min/1.73 m^2 for study eligibility. On Day 1, the patient will start compound 1 treatment. Patients will take compound 1 30 mg orally twice daily for an initial period of 84 days. The patient will visit the study center on Days 1, 8, 15, 29, 57, and 85. The compound 1 dose will be taken in the morning optimally within one hour after breakfast and in the evening optimally within one hour after dinner. If the patient's clinical condition stabilizes or improves, and there are no adverse events preventing further treatment, the patient may be treated for another 84-day treatment cycle. The 84-day cycles may be repeated for a total of up to 4 cycles under this protocol. For the 84-day cycles after the first cycle, the patient will visit the study center every 4 weeks. There will be 4-week follow-up period after the patient stops the compound 1 treatment. Efficacy assessments include: • 1. First morning urinary PCR or ACR; • 2. eGFR by Modification of Diet in Renal Disease (MDRD) formula based on serum creatinine; • 3. Plasma and urine pharmacodynamic markers, e.g., MCP-1, C3a, C5a, properdin, and sC5b-9; • 4. Glomerular inflammation (e.g., crescents, inflammatory cell infiltrate, endocapillary proliferation) and C3 deposition in a follow-up renal biopsy sample;

`Cc1ccc(NC(=O)[C@H]2CCCN(C(=O)c3c(C)cccc3F)[C@H]2c2ccc(NC3CCCC3)cc2)cc1C(F)(F)F` [Compound 1, avacopan] was tested, and the “Urinary MCP-1:Creatinine Ratio Percent Change from Baseline” value ([1]; 26-week treatment period, placebo 1%) was −12%, the “Urinary Protein:Creatinine Ratio (Proteinuria) Percent Change from Baseline” value ([1]; 26-week treatment period, placebo −14%) was −26% and the “eGFR improvement from baseline” value ([1]; 26 weeks, subjects with eGFR <60 mL/min/1.73 m^2 at baseline, placebo 6% worsening, P=0.0199) was 13%. The eGFR mean increase ([1]; 26 weeks, subjects with eGFR <60 mL/min/1.73 m^2 at baseline, placebo decrease of 1.4) was “about 5 mL/min/1.73 m^2”, the “eGFR average increase relative to placebo” value ([1]; after 26 weeks, subjects with eGFR <60 mL/min/1.73 m^2 at baseline) was about 20% and the “eGFR improvement on average from baseline” value ([1]; baseline to week 26, overall, placebo worsened by 6%, P=0.0221) was 5%. For the same compound, the “UPCR (proteinuria) reduction from baseline” value ([1]; end of 26 weeks, placebo 14%) was 26%, the “urinary MCP-1 creatinine ratio versus the placebo group” value ([1]; throughout the 26-week treatment period) was “consistently exhibiting lower levels” and the “UPCR (proteinuria) mean decrease from baseline” value ([1]; week 16, placebo 1% decrease, P<0.05) was 35%. For the same compound, the “C3G Index for Disease Chronicity, higher change in placebo group than avacopan” value ([2]; baseline to Week 26) was 26 percentage point, the “C3G Histologic Index for Disease Chronicity, change from baseline” value ([2]; baseline to Week 26, increase = worsening, placebo 58%) was 32% and the “C3G Histologic Index for Disease Activity (C3G Activity Score), improvement on average” value ([2]; baseline to week 26, all C3G subjects (elevated and normal C5b-9), placebo worsened by 26%) was 6%. The “C3G Activity Score, average difference between the two treatment arms” value ([2]; baseline to week 26, elevated C5b-9 patients, avacopan vs placebo, not statistically significant) was “approximately 40%”, the “C3G Histologic Index for Disease Activity (C3G Activity Score), improvement on average” value ([2]; baseline to week 26, patients with elevated C5b-9 at baseline, placebo worsened by 38%) was 2% and the “C3G Histologic Index for Disease Chronicity, mean change from baseline” value ([2]; baseline to week 26, placebo 1.6, P<0.05) was 0.8. The safety and tolerability [3] was “safe and well-tolerated”, the Endocapillary hypercellularity/total ([4]; 2 months of therapy) was 0/36 and the CD68-positive cells/glomerulus ([4]; 2 months of therapy) was 2-3. For the same compound, the “Immunoflourescence microscopy, IgM” value ([4]; 2 months of therapy) was “neg”, the Endocapillary hypercellularity/total ([4]; 7 months of therapy) was 0/14 and the CD68-positive cells/glomerulus ([4]; 7 months of therapy) was 1-2. For the same compound, the “Immunoflourescence microscopy, IgM” value ([4]; 7 months of therapy) was “neg”, the glomerular inflammation ([4]; on-treatment biopsy compared to pre-treatment) was “reduced glomerular inflammation” and the “glomerular endocapillary proliferation / hypercellularity” value ([4]; on-treatment kidney biopsy compared to pre-treatment biopsy) was “clearance of glomerular endocapillary proliferation; also recorded: resolution of glomerular endocapillary hypercellularity; also recorded: reduction in endocapillary hypercellularity”. For the same compound, the glomerular inflammatory macrophages ([4]; on-treatment kidney biopsy compared to pre-treatment biopsy, CD68 staining) was “marked decrease; also recorded: reduction in glomerular macrophages”, the eGFR decline ([5]; after 1 month of treatment) was “attenuated” and the Proteinuria drop ([5]; single C3GN patient, compound 1 30 mg orally twice daily) was “approximately 80%”. For the same compound, the “eGFR decline / eGFR” value ([5]; single C3GN patient) was “stabilized eGFR” and the “eGFR decline / eGFR” value ([5]; single C3GN patient, listed as compound 1) was “attenuated or stopped”.
